{
  "source": "the supplement of paper PMC10307832",
  "assay_in_all_cases": "relative viability (nuclei count vs DMSO), 5 days (fraction); higher = more cells survive",
  "key": {"BEN": {"tested_on": "BEN", "how_it_was_run": "(§1)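 Lung cancer cell lines, seeded in 1536-well plates, were treated the following day by pin tool with a single drug or with five library-drug doses (not always all listed) in √10 steps on top of a fixed anchor-drug dose. Cells were fixed and nuclei stained in one step after 5 days, and nuclei were counted. Relative viability is the nuclei count for treated wells divided by that for vehicle wells, reported as medians of duplicate plates.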"}, "EKVX": {"tested_on": "EKVX", "how_it_was_run": "as §1"}, "HARA": {"tested_on": "HARA", "how_it_was_run": "as §1"}, "HCC-366": {"tested_on": "HCC-366", "how_it_was_run": "as §1"}, "HCC-827": {"tested_on": "HCC-827", "how_it_was_run": "as §1"}, "LOU-NH91": {"tested_on": "LOU-NH91", "how_it_was_run": "as §1"}, "NCI-H1355": {"tested_on": "NCI-H1355", "how_it_was_run": "as §1"}, "NCI-H1437": {"tested_on": "NCI-H1437", "how_it_was_run": "as §1"}, "NCI-H1734": {"tested_on": "NCI-H1734", "how_it_was_run": "as §1"}, "NCI-H1792": {"tested_on": "NCI-H1792", "how_it_was_run": "as §1"}, "NCI-H1993": {"tested_on": "NCI-H1993", "how_it_was_run": "as §1"}, "NCI-H2009": {"tested_on": "NCI-H2009", "how_it_was_run": "as §1"}, "NCI-H2087": {"tested_on": "NCI-H2087", "how_it_was_run": "as §1"}, "NCI-H2170": {"tested_on": "NCI-H2170", "how_it_was_run": "as §1"}, "NCI-H2405": {"tested_on": "NCI-H2405", "how_it_was_run": "as §1"}, "NCI-H647": {"tested_on": "NCI-H647", "how_it_was_run": "as §1"}, "NCI-H661": {"tested_on": "NCI-H661", "how_it_was_run": "as §1"}, "SK-LU-1": {"tested_on": "SK-LU-1", "how_it_was_run": "as §1"}, "SK-MES-1": {"tested_on": "SK-MES-1", "how_it_was_run": "as §1"}},
  "data": [
    {"molecule": "Cc1sc2c(c1C)C(c1ccc(Cl)cc1)=N[C@@H](CC(=O)OC(C)(C)C)c1nnc(C)n1-2", "note": "[JQ1] + C[C@@H](Oc1cc(-c2cnn(C3CCNCC3)c2)cnc1N)c1c(Cl)ccc(F)c1Cl [Crizotinib] (partner 1 µM)", "values": [
      {"measurement": "relative viability", "setting": "BEN; first compound 0.04 µM", "value": 0.67},
      {"measurement": "relative viability", "setting": "BEN; first compound 0.1265 µM", "value": 0.84},
      {"measurement": "relative viability", "setting": "BEN; first compound 0.4 µM", "value": 0.51},
      {"measurement": "relative viability", "setting": "BEN; first compound 1.265 µM", "value": 0.335},
      {"measurement": "relative viability", "setting": "BEN; first compound 4 µM", "value": 0.229},
      {"measurement": "relative viability", "setting": "EKVX; first compound 0.04 µM", "value": 0.713},
      {"measurement": "relative viability", "setting": "EKVX; first compound 0.1265 µM", "value": 0.749},
      {"measurement": "relative viability", "setting": "EKVX; first compound 0.4 µM", "value": 0.938},
      {"measurement": "relative viability", "setting": "EKVX; first compound 1.265 µM", "value": 0.707},
      {"measurement": "relative viability", "setting": "EKVX; first compound 4 µM", "value": 0.489},
      {"measurement": "relative viability", "setting": "HARA; first compound 0.04 µM", "value": 0.945},
      {"measurement": "relative viability", "setting": "HARA; first compound 0.1265 µM", "value": 0.714},
      {"measurement": "relative viability", "setting": "HARA; first compound 0.4 µM", "value": 0.337},
      {"measurement": "relative viability", "setting": "HARA; first compound 1.265 µM", "value": 0.366},
      {"measurement": "relative viability", "setting": "HARA; first compound 4 µM", "value": 0.308},
      {"measurement": "relative viability", "setting": "HCC-366; first compound 0.04 µM", "value": 0.457},
      {"measurement": "relative viability", "setting": "HCC-366; first compound 0.4 µM", "value": 0.41},
      {"measurement": "relative viability", "setting": "HCC-366; first compound 1.265 µM", "value": 0.243},
      {"measurement": "relative viability", "setting": "HCC-366; first compound 4 µM", "value": 0.103},
      {"measurement": "relative viability", "setting": "HCC-827; first compound 0.04 µM", "value": 1.01},
      {"measurement": "relative viability", "setting": "HCC-827; first compound 0.4 µM", "value": 0.663},
      {"measurement": "relative viability", "setting": "HCC-827; first compound 1.265 µM", "value": 0.672},
      {"measurement": "relative viability", "setting": "HCC-827; first compound 4 µM", "value": 0.668},
      {"measurement": "relative viability", "setting": "LOU-NH91; first compound 0.04 µM", "value": 0.719},
      {"measurement": "relative viability", "setting": "LOU-NH91; first compound 0.1265 µM", "value": 0.693},
      {"measurement": "relative viability", "setting": "LOU-NH91; first compound 0.4 µM", "value": 0.531},
      {"measurement": "relative viability", "setting": "LOU-NH91; first compound 1.265 µM", "value": 0.53},
      {"measurement": "relative viability", "setting": "LOU-NH91; first compound 4 µM", "value": 0.419},
      {"measurement": "relative viability", "setting": "NCI-H1355; first compound 0.04 µM", "value": 1.01},
      {"measurement": "relative viability", "setting": "NCI-H1355; first compound 0.1265 µM", "value": 0.963},
      {"measurement": "relative viability", "setting": "NCI-H1355; first compound 0.4 µM", "value": 0.768},
      {"measurement": "relative viability", "setting": "NCI-H1355; first compound 1.265 µM", "value": 0.559},
      {"measurement": "relative viability", "setting": "NCI-H1355; first compound 4 µM", "value": 0.614},
      {"measurement": "relative viability", "setting": "NCI-H1437; first compound 0.04 µM", "value": 0.849},
      {"measurement": "relative viability", "setting": "NCI-H1437; first compound 0.1265 µM", "value": 0.896},
      {"measurement": "relative viability", "setting": "NCI-H1437; first compound 0.4 µM", "value": 0.666},
      {"measurement": "relative viability", "setting": "NCI-H1437; first compound 1.265 µM", "value": 0.29},
      {"measurement": "relative viability", "setting": "NCI-H1437; first compound 4 µM", "value": 0.248},
      {"measurement": "relative viability", "setting": "NCI-H1734; first compound 0.04 µM", "value": 0.696},
      {"measurement": "relative viability", "setting": "NCI-H1734; first compound 0.1265 µM", "value": 0.659},
      {"measurement": "relative viability", "setting": "NCI-H1734; first compound 0.4 µM", "value": 0.569},
      {"measurement": "relative viability", "setting": "NCI-H1734; first compound 1.265 µM", "value": 0.449},
      {"measurement": "relative viability", "setting": "NCI-H1734; first compound 4 µM", "value": 0.331},
      {"measurement": "relative viability", "setting": "NCI-H1792; first compound 0.04 µM", "value": 0.968},
      {"measurement": "relative viability", "setting": "NCI-H1792; first compound 0.4 µM", "value": 0.948},
      {"measurement": "relative viability", "setting": "NCI-H1792; first compound 1.265 µM", "value": 0.768},
      {"measurement": "relative viability", "setting": "NCI-H1792; first compound 4 µM", "value": 0.644},
      {"measurement": "relative viability", "setting": "NCI-H1993; first compound 0.04 µM", "value": 0.834},
      {"measurement": "relative viability", "setting": "NCI-H1993; first compound 0.1265 µM", "value": 0.774},
      {"measurement": "relative viability", "setting": "NCI-H1993; first compound 0.4 µM", "value": 0.728},
      {"measurement": "relative viability", "setting": "NCI-H1993; first compound 1.265 µM", "value": 0.799},
      {"measurement": "relative viability", "setting": "NCI-H1993; first compound 4 µM", "value": 0.698},
      {"measurement": "relative viability", "setting": "NCI-H2009; first compound 0.04 µM", "value": 0.969},
      {"measurement": "relative viability", "setting": "NCI-H2009; first compound 0.1265 µM", "value": 0.627},
      {"measurement": "relative viability", "setting": "NCI-H2009; first compound 0.4 µM", "value": 0.572},
      {"measurement": "relative viability", "setting": "NCI-H2009; first compound 1.265 µM", "value": 0.301},
      {"measurement": "relative viability", "setting": "NCI-H2009; first compound 4 µM", "value": 0.211},
      {"measurement": "relative viability", "setting": "NCI-H2087; first compound 0.04 µM", "value": 0.901},
      {"measurement": "relative viability", "setting": "NCI-H2087; first compound 0.4 µM", "value": 0.862},
      {"measurement": "relative viability", "setting": "NCI-H2087; first compound 1.265 µM", "value": 0.602},
      {"measurement": "relative viability", "setting": "NCI-H2087; first compound 4 µM", "value": 0.344},
      {"measurement": "relative viability", "setting": "NCI-H2170; first compound 0.04 µM", "value": 0.997},
      {"measurement": "relative viability", "setting": "NCI-H2170; first compound 0.1265 µM", "value": 1.12},
      {"measurement": "relative viability", "setting": "NCI-H2170; first compound 0.4 µM", "value": 0.72},
      {"measurement": "relative viability", "setting": "NCI-H2170; first compound 1.265 µM", "value": 0.599},
      {"measurement": "relative viability", "setting": "NCI-H2170; first compound 4 µM", "value": 0.517},
      {"measurement": "relative viability", "setting": "NCI-H2405; first compound 0.04 µM", "value": 0.829},
      {"measurement": "relative viability", "setting": "NCI-H2405; first compound 0.1265 µM", "value": 0.711},
      {"measurement": "relative viability", "setting": "NCI-H2405; first compound 0.4 µM", "value": 0.749},
      {"measurement": "relative viability", "setting": "NCI-H2405; first compound 1.265 µM", "value": 0.555},
      {"measurement": "relative viability", "setting": "NCI-H2405; first compound 4 µM", "value": 0.395},
      {"measurement": "relative viability", "setting": "NCI-H647; first compound 0.04 µM", "value": 1.03},
      {"measurement": "relative viability", "setting": "NCI-H647; first compound 0.1265 µM", "value": 0.486},
      {"measurement": "relative viability", "setting": "NCI-H647; first compound 0.4 µM", "value": 0.276},
      {"measurement": "relative viability", "setting": "NCI-H647; first compound 1.265 µM", "value": 0.0835},
      {"measurement": "relative viability", "setting": "NCI-H647; first compound 4 µM", "value": 0.0629},
      {"measurement": "relative viability", "setting": "NCI-H661; first compound 0.04 µM", "value": 1},
      {"measurement": "relative viability", "setting": "NCI-H661; first compound 0.1265 µM", "value": 1.08},
      {"measurement": "relative viability", "setting": "NCI-H661; first compound 1.265 µM", "value": 1.05},
      {"measurement": "relative viability", "setting": "NCI-H661; first compound 4 µM", "value": 0.776},
      {"measurement": "relative viability", "setting": "SK-LU-1; first compound 0.04 µM", "value": 0.96},
      {"measurement": "relative viability", "setting": "SK-LU-1; first compound 0.1265 µM", "value": 0.615},
      {"measurement": "relative viability", "setting": "SK-LU-1; first compound 0.4 µM", "value": 0.481},
      {"measurement": "relative viability", "setting": "SK-LU-1; first compound 1.265 µM", "value": 0.193},
      {"measurement": "relative viability", "setting": "SK-LU-1; first compound 4 µM", "value": 0.148},
      {"measurement": "relative viability", "setting": "SK-MES-1; first compound 0.04 µM", "value": 0.873},
      {"measurement": "relative viability", "setting": "SK-MES-1; first compound 0.1265 µM", "value": 0.77},
      {"measurement": "relative viability", "setting": "SK-MES-1; first compound 0.4 µM", "value": 0.672},
      {"measurement": "relative viability", "setting": "SK-MES-1; first compound 1.265 µM", "value": 0.467},
      {"measurement": "relative viability", "setting": "SK-MES-1; first compound 4 µM", "value": 0.295}
    ]}
  ]
}
